Results as given in patent US6730699B2, “Water soluble paclitaxel derivatives” (priority 2001, dated 2004).
Read-outs that look alike come from different tables or passages of the source.

Experiments:
[1] = Acute toxicity in 13762F tumor-bearing Fischer rats
[2] = in vivo; details: female, C3Hf/Kam, mouse, iv
[3] = tested on: rat mammary tumor cell line 13762F; experiment: Plating efficiency assay, 13762F cells; format: cell-based; details: 144 h, read-out: IC50 (50% inhibition of colony formation), 6 days of continuous exposure, approximate
[4] = tested on: ovarian OCa-l carcinoma
[5] = tested on: SKOV3ipl human ovarian cancer cell line; experiment: Human ovarian cancer i.p. in nude mice
[6] = 47 mg eq./kg + 14 Gy 24 h after PG-TXL
[7] = 80 mg eq./kg + 14 Gy 24 h after PG-TXL
[8] = 120 mg eq/kg + 14 Gy 24 h after PG-TXL
[9] = 120 mg eq/kg + 14 Gy 24 h prior to PG-TXL

## CC(=O)O[C@H]1C(=O)[C@@]2(C)[C@H]([C@H](OC(=O)c3ccccc3)[C@]3(O)C[C@H](OC(=O)[C@H](O)[C@@H](NC(=O)c4ccccc4)c4ccccc4)C(C)=C1C3(C)C)[C@]1(OC(C)=O)CO[C@@H]1C[C@@H]2O [Paclitaxel, paclitaxel]
[1]; 20 mg/kg single i.v.
  # of Toxic Death: 0/5
  Body Weight Loss in %: 17.0%
  Time at Nadir: 5 days
[1]; 40 mg/kg single i.v.
  # of Toxic Death: 0/3
  Body Weight Loss in %: 17.9%
  Time at Nadir: 6 days
  Time of Full Recovery: 16 days
[1]; 60 mg/kg single i.v.
  # of Toxic Death: 1/4
  Body Weight Loss in %: 16.7%
  Time at Nadir: 6 days
  Time of Full Recovery: 15 days
[1]; female, Fischer 344, rat, in vivo
  MTD at 2 wk: < 20 mg/kg
[2]
  MTD at 2 wk: 80 mg/kg
[3]
  IC50: ~2 nM

## Poly-Glutamic Acid-Paclitaxel [PG-TXL]
[4]; [6]
  Absolute growth delay: 18.2 days
  Days for tumor to grow from 8-14 mm (means ± SD): 35.3 ± 4.7 days
  Normalized growth delay (means ± SD): 15.5 ± 4.7 days
[4]; 47 mg eq./kg, no radiation
  Absolute growth delay: 2.7 days
  Days for tumor to grow from 8-14 mm (means ± SD): 19.8 ± 0.98 days
[4]; [7]
  Absolute growth delay: 45.6 days
  Days for tumor to grow from 8-14 mm (means ± SD): 62 ± 4.6 days
  Normalized growth delay (means ± SD): 37.5 ± 4.6 days
[4]; 80 mg eq./kg, no radiation
  Absolute growth delay: 8.1 days
  Days for tumor to grow from 8-14 mm (means ± SD): 25.3 ± 3.9 days
[4]; [8]
  Absolute growth delay: 98.4 days
  Normalized growth delay (means ± SD): 85.9 ± 3.0 days
[4]; 120 mg eq/kg + 14 Gy 24 h after PG-TXL, regrown tumors only
  Days for tumor to grow from 8-14 mm (means ± SD): 115 ± 3 days
[4]; [9]
  Absolute growth delay: 100.5 days
  Normalized growth delay (means ± SD): 88 ± 1.2 days
[4]; 120 mg eq/kg + 14 Gy 24 h prior to PG-TXL, regrown tumors only
  Days for tumor to grow from 8-14 mm (means ± SD): 117 ± 1.2 days
[4]; 120 mg eq/kg, no radiation
  Absolute growth delay: 12.5 days
  Days for tumor to grow from 8-14 mm (means ± SD): 29.7 ± 3.2 days
[5]; 120 mg/kg, three injections
  Ascites (incidence/mice with tumor): 3/7
  Mean vol of ascites (s.d.): 2.7 ± 1.4 mL
  Tumor take (incidence of tumor/mice injected): 7/8
[5]; 160 mg/kg i.v., nude mice
  mice killed by a single injection: 5 of the 10
[5]; 160 mg/kg, single dose
  Ascites (incidence/mice with tumor): 0/3
[1]; 40 mg/kg single i.v.
  Body Weight Loss in %: 11.1%
  Time at Nadir: 6 days
  Time of Full Recovery: 11 days
[1]; 60 mg/kg single i.v.
  Body Weight Loss in %: 15.7%
  Time at Nadir: 7 days
  Time of Full Recovery: 14 days
